Data from patent EP0349354A1, “Peptides PF10 to PF19 from a retro virus HIV, method for the synthesis of these peptides and their use, particularly in diagnostics” (INSTITUT PASTEUR, priority 1988, dated 1990).
Where no end group is shown, it is not given here. The star is where a group is joined. Acm = CC(=O)NC*

How the values were obtained:
anticorps anti-nef = experiment: ELISA for detection of anti-nef antibodies on coated peptides or nef; assay type: binding, humain
[1] = tested on: anticorps, monoclonal anti-protéine F d'un rétrovirus HIV-1; experiment: ELISA with mouse monoclonal anti-protein F antibody; assay type: binding, souris; details: antibody produced in mouse
Source text: Par ailleurs, les inventeurs ont constaté qu'un anticorps, monoclonal anti-protéine F d'un rétrovirus HIV-1 produit chez la souris reconnait le peptide PF16 de l'invention dans un test ELISA.

[2] = tested on: anticorps anti-protéine F; experiment: Western blot test on peptide spots with sera of HIV-1 infected patients; assay type: binding, humain; set-up: key to réaction avec sérum CHA 1/300, 10µl / réaction avec sérum LOM 1/100, 10µl / réaction avec sérum LOM 1/100, 5µl / réaction avec sérum CHA 1/300, 5µl / réaction avec sérum CHA 1/300, 2µl / réaction avec sérum CHA 1/300, 1µl / réaction avec sérum 1545 1/200, 10µl: ++ signifiant une réaction plus marquée
Description: Pour les besoins du test, les différents peptides PF16, PF19, PF13, PF17 utilisés sont dilués à une concentration de 2 mg/ml.
Sur une bande de papier BIORAD pour transblot, on dépose différents spots : 1µl, 2µl, 5µl, 10µl.
Après séchage on pratique un test Western Blot classique en utilisant comme anticorps des sérums de patients infectés par le virus HIV-1, positifs pour la protéine F, à des dilutions variant de 1/100 à 1/300.
Les peptides testés permettent d'aboutir aux résultats résumés dans le tableau 2 avec trois sérums différents anti-F ++ (++ signifiant une réaction plus marquée).

GMDDPEREVLEWRFDSRLAFHHVARELHPEYFKNC(acm) (GMDDPEREVLEWRFDSRLAFHHVARELHPEYFKNC(Acm)) [PF16, protéine F HIV-1, séquence 171-205]
nombre de sérums anti-nef positifs ayant réagi (anticorps anti-nef; ELISA, out of 31 anti-nef positive sera): 26
intensité de l'immunoréactivité (OD), Serum 1 (anticorps anti-nef; Serum 1, anti-nef positive, 500 ng coated per well): +++ (pour OD = 0,8 à 2,0)
intensité de l'immunoréactivité (OD), Serum 2 (anticorps anti-nef; Serum 2, anti-nef positive, 500 ng coated per well): +++ (pour OD = 0,8 à 2,0)
intensité de l'immunoréactivité (OD), Serum 3 (anticorps anti-nef; Serum 3, anti-nef positive, 500 ng coated per well): + (pour OD = 0,2 à 0,4)
intensité de l'immunoréactivité (OD), Serum 4 (anticorps anti-nef; Serum 4, anti-nef positive, 500 ng coated per well): +++ (pour OD = 0,8 à 2,0)
intensité de l'immunoréactivité (OD), Serum 5 (anticorps anti-nef; Serum 5, anti-nef positive, 500 ng coated per well): +++ (pour OD = 0,8 à 2,0)
intensité de l'immunoréactivité (OD), Serum 6 (anticorps anti-nef; Serum 6, anti-nef positive, 500 ng coated per well): +++ (pour OD = 0,8 à 2,0)
intensité de l'immunoréactivité (OD), Serum 7 (anticorps anti-nef; Serum 7, anti-nef positive, 500 ng coated per well): - (pour une densité optique (OD) inférieure à 0,2)
intensité de l'immunoréactivité (OD), Serum 8 (anticorps anti-nef; Serum 8, anti-nef positive, 500 ng coated per well): - (pour une densité optique (OD) inférieure à 0,2)
intensité de l'immunoréactivité (OD), Serum 9 (anticorps anti-nef; Serum 9, anti-nef positive, 500 ng coated per well): - (pour une densité optique (OD) inférieure à 0,2)
intensité de l'immunoréactivité (OD), Serum 10 (anticorps anti-nef; Serum 10, anti-nef positive, 500 ng coated per well): + (pour OD = 0,2 à 0,4)
intensité de l'immunoréactivité (OD), Serum 11 (anticorps anti-nef; Serum 11, anti-nef positive, 500 ng coated per well): + (pour OD = 0,2 à 0,4)
intensité de l'immunoréactivité (OD), Serum 12 (anticorps anti-nef; Serum 12, anti-nef positive, 500 ng coated per well): - (pour une densité optique (OD) inférieure à 0,2)
intensité de l'immunoréactivité (OD), Serum 13 (anticorps anti-nef; Serum 13, anti-nef positive, 500 ng coated per well): ++ (pour OD = 0,4 à 0,8)
intensité de l'immunoréactivité (OD), Serum 14 (anticorps anti-nef; Serum 14, anti-nef positive, 500 ng coated per well): - (pour une densité optique (OD) inférieure à 0,2)
intensité de l'immunoréactivité (OD), Serum 15 (anticorps anti-nef; Serum 15, anti-nef positive, 500 ng coated per well): +++ (pour OD = 0,8 à 2,0)
intensité de l'immunoréactivité (OD), Serum 16 (anticorps anti-nef; Serum 16, anti-nef positive, 500 ng coated per well): +++ (pour OD = 0,8 à 2,0)
intensité de l'immunoréactivité (OD), Serum 17 (anticorps anti-nef; Serum 17, anti-nef positive, 500 ng coated per well): ++ (pour OD = 0,4 à 0,8)
intensité de l'immunoréactivité (OD), Serum 18 (anticorps anti-nef; Serum 18, anti-nef positive, 500 ng coated per well): +++ (pour OD = 0,8 à 2,0)
intensité de l'immunoréactivité (OD), Serum 19 (anticorps anti-nef; Serum 19, anti-nef positive, 500 ng coated per well): +++ (pour OD = 0,8 à 2,0)
intensité de l'immunoréactivité (OD), Serum 20 (anticorps anti-nef; Serum 20, anti-nef positive, 500 ng coated per well): ++ (pour OD = 0,4 à 0,8)
intensité de l'immunoréactivité (OD), Serum 21 (anticorps anti-nef; Serum 21, anti-nef positive, 500 ng coated per well): +++ (pour OD = 0,8 à 2,0)
intensité de l'immunoréactivité (OD), Serum 22 (anticorps anti-nef; Serum 22, anti-nef positive, 500 ng coated per well): +++ (pour OD = 0,8 à 2,0)
intensité de l'immunoréactivité (OD), Serum 23 (anticorps anti-nef; Serum 23, anti-nef positive, 500 ng coated per well): ++ (pour OD = 0,4 à 0,8)
intensité de l'immunoréactivité (OD), Serum 24 (anticorps anti-nef; Serum 24, anti-nef positive, 500 ng coated per well): +++ (pour OD = 0,8 à 2,0)
intensité de l'immunoréactivité (OD), Serum 25 (anticorps anti-nef; Serum 25, anti-nef positive, 500 ng coated per well): +++ (pour OD = 0,8 à 2,0)
intensité de l'immunoréactivité (OD), Serum 26 (anticorps anti-nef; Serum 26, anti-nef positive, 500 ng coated per well): +++ (pour OD = 0,8 à 2,0)
intensité de l'immunoréactivité (OD), Serum 27 (anticorps anti-nef; Serum 27, anti-nef positive, 500 ng coated per well): + (pour OD = 0,2 à 0,4)
intensité de l'immunoréactivité (OD), Serum 28 (anticorps anti-nef; Serum 28, anti-nef positive, 500 ng coated per well): ++ (pour OD = 0,4 à 0,8)
intensité de l'immunoréactivité (OD), Serum 29 (anticorps anti-nef; Serum 29, anti-nef positive, 500 ng coated per well): ++ (pour OD = 0,4 à 0,8)
intensité de l'immunoréactivité (OD), Serum 30 (anticorps anti-nef; Serum 30, anti-nef positive, 500 ng coated per well): ++ (pour OD = 0,4 à 0,8)
intensité de l'immunoréactivité (OD), Serum 31 (anticorps anti-nef; Serum 31, anti-nef positive, 500 ng coated per well): +++ (pour OD = 0,8 à 2,0)
intensité de l'immunoréactivité (OD), Serum 32 (anticorps anti-nef; Serum 32, anti-nef negative control serum, 500 ng coated per well): - (pour une densité optique (OD) inférieure à 0,2)
intensité de l'immunoréactivité (OD), Serum 33 (anticorps anti-nef; Serum 33, anti-nef negative control serum, 500 ng coated per well): - (pour une densité optique (OD) inférieure à 0,2)
reconnaissance par un anticorps monoclonal anti-protéine F [1]: reconnait
réaction avec sérum 1545 1/200, 10µl ([2]; serum 1545 diluted 1/200, spot 10µl of peptide at 2 mg/ml): ++
réaction avec sérum CHA 1/300, 1µl ([2]; serum CHA diluted 1/300, spot 1µl of peptide at 2 mg/ml): ++
réaction avec sérum CHA 1/300, 2µl ([2]; serum CHA diluted 1/300, spot 2µl of peptide at 2 mg/ml): ++
réaction avec sérum CHA 1/300, 5µl ([2]; serum CHA diluted 1/300, spot 5µl of peptide at 2 mg/ml): ++
réaction avec sérum CHA 1/300, 10µl ([2]; serum CHA diluted 1/300, spot 10µl of peptide at 2 mg/ml): ++
réaction avec sérum LOM 1/100, 5µl ([2]; serum LOM diluted 1/100 (column outside the heading of positive sera), spot 5µl of peptide at 2 mg/ml): ++
réaction avec sérum LOM 1/100, 10µl ([2]; serum LOM diluted 1/100 (column outside the heading of positive sera), spot 10µl of peptide at 2 mg/ml): ++
